Results on 22 molecules are retold here after patent US20220213092A1, “BICYCLIC PYRAZOLE BRUTON'S TYROSINE KINASE INHIBITORS” (AbbVie Inc., priority 2020, published 2022).

A value given as a limit tells only on which side of the number the result lay.

In the first assay the target is T1, BTK (Homo sapiens, UniProt Q06187).
T1 construct: purchased Nanosyn, Santa Clara, Calif; host or cells: 293HEK
T1 sequence (Q06187 whole entry): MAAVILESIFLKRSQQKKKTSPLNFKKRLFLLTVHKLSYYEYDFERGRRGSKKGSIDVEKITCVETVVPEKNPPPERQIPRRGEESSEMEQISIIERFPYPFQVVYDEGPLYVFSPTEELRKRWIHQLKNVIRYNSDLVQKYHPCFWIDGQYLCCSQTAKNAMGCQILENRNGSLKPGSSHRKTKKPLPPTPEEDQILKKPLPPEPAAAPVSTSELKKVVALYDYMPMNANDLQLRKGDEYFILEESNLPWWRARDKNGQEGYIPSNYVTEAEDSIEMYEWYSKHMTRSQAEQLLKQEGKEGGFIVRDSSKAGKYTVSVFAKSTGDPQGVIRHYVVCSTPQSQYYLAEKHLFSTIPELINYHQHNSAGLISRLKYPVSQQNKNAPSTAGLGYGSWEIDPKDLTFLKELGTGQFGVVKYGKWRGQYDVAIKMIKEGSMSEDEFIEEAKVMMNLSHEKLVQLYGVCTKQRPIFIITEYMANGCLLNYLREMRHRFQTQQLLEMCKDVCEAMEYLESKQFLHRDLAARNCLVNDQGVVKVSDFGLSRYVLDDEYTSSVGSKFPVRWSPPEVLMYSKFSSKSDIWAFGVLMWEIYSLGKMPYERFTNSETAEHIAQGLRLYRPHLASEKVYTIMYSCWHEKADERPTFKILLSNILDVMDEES
Briefly: BTK kinase electrophoretic mobility shift assay (MSA). The assay is classed as biochemical.
Settings: not given
The protocol: Kinase activity, unless otherwise indicated, was measured in vitro using an electrophoretic mobility shift assay (MSA). The phosphorylation of a peptide substrate by BTK and other kinases was measured. The kinase reactions were assembled in a total volume of 25 μL per well in 384 well plates. The following was added to each well: compound buffer (or control); enzyme buffer; and substrate buffer, as further described below.
The terminated reactions were analyzed using a 12 channel LABCHIP® 3000 microfluidic detection instrument (available from Caliper Life Sciences, Waltham, Mass.). […] Change in the relative fluorescence intensity of the substrate and product peaks was the parameter measured, reflecting enzyme activity. In the presence of an inhibitor, the ratio between product and substrate was altered. The signal of the product decreased, while the signal of the substrate increased. Capillary electrophoregrams (RDA acquisition files) were analyzed using HTS Well Analyzer software (available from Caliper Life Sciences, Waltham, Mass.).
Activity in each sample was determined as the product to sum ratio (PSR): P/(S+P), where P was the peak height of the product peptide and S was the peak height of the substrate peptide. For each compound, enzyme activity was measured at various concentrations (12 concentrations of compound spaced by 3× dilution intervals). Negative control samples (00 inhibition in the absence of inhibitor) and positive control samples (10000 inhibition, in the presence of 20 mM EDTA) were assembled in replicates of four and were used to calculate 00 inhibition values for each inhibitor at each concentration. Percent inhibition (Pinh) was determined using following equation: Pinh=(PSR0%−PSRinh)/(PSR0%−PSR100%)*100, where PSRinh was the product sum ratio in the presence of inhibitor, PSR0% was the average product sum ratio in the absence of inhibitor and PSR100% was the average product sum ratio in 100%−inhibition control samples.
The IC50 values of inhibitors were determined by 4 parameter sigmoidal dose response model fitting of the inhibition curves (Pinh versus inhibitor concentration) using XLfit® 4 software (available from IDBS, Boston, Mass.).
One may read the IC50 as the concentration that gives 50% inhibition. For `NC(=O)c1c2c(nn1-c1ccc(Oc3ccccc3)cc1)C(N1CCN(C(=O)CF)CC1)CCN2` (stereo not shown) [Example 49, 7-[4-(fluoroacetyl)piperazin-1-yl]-2-(4-phenoxyphenyl)-4,5,6,7-tetrahydro-2H-pyrazolo[4,3-b]pyridine-3-carboxamide], the half-maximal inhibitory concentration (IC50) was 0.398 µM.

Still in this assay, the particulars now being: 50 μM ATP, 0.5 nM BTK enzyme (Nanosyn-293HEK, WT), 3 hours at 25° C.; all examples except 50, 51, 62 and 63; read-out: BTK IC50.
On to `C=CC(=O)N1CCN(C2CCNc3c2nn(-c2ccc(Oc4ccc(F)cc4F)cc2)c3C(N)=O)CC1` (stereo not shown) [Example 36, 2-[4-(2,4-difluorophenoxy)phenyl]-7-[4-(prop-2-enoyl)piperazin-1-yl]-4,5,6,7-tetrahydro-2H-pyrazolo[4,3-b]pyridine-3-carboxamide], for which the 50% inhibitory concentration (IC50) amounted to 0.0142 µM.

As to `C=CC(=O)N1CCC(C2CCNc3c2nn(-c2ccc(Oc4ccccc4)cc2F)c3C(N)=O)CC1` (stereo not shown) [Example 37, 2-(2-fluoro-4-phenoxyphenyl)-7-[1-(prop-2-enoyl)piperidin-4-yl]-4,5,6,7-tetrahydro-2H-pyrazolo[4,3-b]pyridine-3-carboxamide], the IC50 came out at 0.00248 µM. For `C=CC(=O)N1CCN(C2CCNc3c2nn(-c2ccc(Oc4ccccc4F)cc2)c3C(N)=O)CC1` (stereo not shown) [Example 38, 2-[4-(2-fluorophenoxy)phenyl]-7-[4-(prop-2-enoyl)piperazin-1-yl]-4,5,6,7-tetrahydro-2H-pyrazolo[4,3-b]pyridine-3-carboxamide], the half-maximal inhibitory concentration (IC50) came to 0.00358 µM. As for `C=CC(=O)N1CC2CC(C1)N2C1CCNc2c1nn(-c1ccc(Oc3ccccc3)cc1)c2C(N)=O` (stereo not shown) [Example 41, 2-(4-phenoxyphenyl)-7-[3-(prop-2-enoyl)-3,6-diazabicyclo[3.1.1]heptan-6-yl]-4,5,6,7-tetrahydro-2H-pyrazolo[4,3-b]pyridine-3-carboxamide], the IC50 amounted to 0.0158 µM. For the molecule `C=CC(=O)N1CCN(C2CCNc3c2nn(-c2ccc(Oc4ccccc4)cc2)c3C(N)=O)C[C@H]1C` (stereo partly drawn) [Example 42, 7-[(3R)-3-methyl-4-(prop-2-enoyl)piperazin-1-yl]-2-(4-phenoxyphenyl)-4,5,6,7-tetrahydro-2H-pyrazolo[4,3-b]pyridine-3-carboxamide], the IC50 amounted to 0.0118 µM. Regarding `CN(C)C/C=C/C(=O)N1CCN([C@@H]2CCNc3c2nn(-c2ccc(Oc4ccccc4)cc2)c3C(N)=O)CC1` [Example 46, (7R)-7-{4-[(2E)-4-(dimethylamino)but-2-enoyl]piperazin-1-yl}-2-(4-phenoxyphenyl)-4,5,6,7-tetrahydro-2H-pyrazolo[4,3-b]pyridine-3-carboxamide], the half-inhibitory concentration (IC50) was 0.0767 µM. On the same count and under the same terms, as for `C/C=C/C(=O)N1CCN([C@@H]2CCNc3c2nn(-c2ccc(Oc4ccccc4)cc2)c3C(N)=O)CC1` [Example 47, (7R)-7-{4-[(2E)-but-2-enoyl]piperazin-1-yl}-2-(4-phenoxyphenyl)-4,5,6,7-tetrahydro-2H-pyrazolo[4,3-b]pyridine-3-carboxamide], the figure is 0.819 µM; as for `NC(=O)/C=C/C(=O)N1CCN([C@@H]2CCNc3c2nn(-c2ccc(Oc4ccccc4)cc2)c3C(N)=O)CC1` [Example 48, (7R)-7-{4-[(2E)-4-amino-4-oxobut-2-enoyl]piperazin-1-yl}-2-(4-phenoxyphenyl)-4,5,6,7-tetrahydro-2H-pyrazolo[4,3-b]pyridine-3-carboxamide], 0.0511 µM. Consider `C=CC(=O)N1CCN(C2CCNc3c2nn(-c2ccc(Oc4ccccc4)cc2Cl)c3C(N)=O)CC1` (stereo not shown) [Example 52, 2-(2-chloro-4-phenoxyphenyl)-7-[4-(prop-2-enoyl)piperazin-1-yl]-4,5,6,7-tetrahydro-2H-pyrazolo[4,3-b]pyridine-3-carboxamide], for which the IC50 came out at 0.0333 µM. On the same count and under the same terms, with `C=CC(=O)N1CCN(C2CCNc3c2nn(-c2ccc(Oc4cc(F)cc(F)c4)cc2)c3C(N)=O)CC1` (stereo not shown) [Example 55, 2-[4-(3,5-difluorophenoxy)phenyl]-7-[4-(prop-2-enoyl)piperazin-1-yl]-4,5,6,7-tetrahydro-2H-pyrazolo[4,3-b]pyridine-3-carboxamide] the figure was 0.00763 µM; with `C=CC(=O)N1CCN(C2CCNc3c2nn(-c2ccc(Oc4ccc(F)cc4)cc2)c3C(N)=O)CC1` (stereo not shown) [Example 56, 2-[4-(4-fluorophenoxy)phenyl]-7-[4-(prop-2-enoyl)piperazin-1-yl]-4,5,6,7-tetrahydro-2H-pyrazolo[4,3-b]pyridine-3-carboxamide], 0.0148 µM; with `C=CC(=O)N1CCN([C@H]2CCNc3c2nn(-c2ccc(Oc4ccccc4C(F)(F)F)cc2)c3C(N)=O)CC1` [Example 61, (7S)-7-[4-(prop-2-enoyl)piperazin-1-yl]-2-{4-[2-(trifluoromethyl)phenoxy]phenyl}-4,5,6,7-tetrahydro-2H-pyrazolo[4,3-b]pyridine-3-carboxamide], 0.0272 µM.

Regarding `C=CC(=O)N1CCN([C@H]2CCNc3c2nn(-c2ccc(Oc4ccccc4C)cc2)c3C(N)=O)CC1` [Example 94, (7S)-2-[4-(2-methylphenoxy)phenyl]-7-[4-(prop-2-enoyl)piperazin-1-yl]-4,5,6,7-tetrahydro-2H-pyrazolo[4,3-b]pyridine-3-carboxamide], the 50% inhibitory concentration (IC50) was determined as 0.0235 µM. `C=CC(=O)N1CCN([C@H]2CCNc3c2nn(-c2ccc(Oc4cccc(C)c4)cc2)c3C(N)=O)CC1` [Example 95, (7S)-2-[4-(3-methylphenoxy)phenyl]-7-[4-(prop-2-enoyl)piperazin-1-yl]-4,5,6,7-tetrahydro-2H-pyrazolo[4,3-b]pyridine-3-carboxamide]: the 50% inhibitory concentration (IC50) was 0.0141 µM. As to `C=CC(=O)N1CCN([C@H]2CCNc3c2nn(-c2ccc(Oc4ccc(C)cc4)cc2)c3C(N)=O)CC1` [Example 96, (7S)-2-[4-(4-methylphenoxy)phenyl]-7-[4-(prop-2-enoyl)piperazin-1-yl]-4,5,6,7-tetrahydro-2H-pyrazolo[4,3-b]pyridine-3-carboxamide], the IC50 is 0.0592 µM. As for `C=CC(=O)N1CCN([C@H]2CCNc3c2nn(-c2ccc(Oc4ccccc4OC)cc2)c3C(N)=O)CC1` [Example 97, (7S)-2-[4-(2-methoxyphenoxy)phenyl]-7-[4-(prop-2-enoyl)piperazin-1-yl]-4,5,6,7-tetrahydro-2H-pyrazolo[4,3-b]pyridine-3-carboxamide], the IC50 stood at 0.12 µM.

As to `C=CC(=O)N1CCN([C@H]2CCNc3c2nn(-c2ccc(Oc4cccc(OC)c4)cc2)c3C(N)=O)CC1` [Example 98, (7S)-2-[4-(3-methoxyphenoxy)phenyl]-7-[4-(prop-2-enoyl)piperazin-1-yl]-4,5,6,7-tetrahydro-2H-pyrazolo[4,3-b]pyridine-3-carboxamide], the IC50 turned out to be 0.0144 µM. As to `C=CC(=O)N1CCN([C@H]2CCNc3c2nn(-c2ccc(Oc4ccc(OC)cc4)cc2)c3C(N)=O)CC1` [Example 99, (7S)-2-[4-(4-methoxyphenoxy)phenyl]-7-[4-(prop-2-enoyl)piperazin-1-yl]-4,5,6,7-tetrahydro-2H-pyrazolo[4,3-b]pyridine-3-carboxamide], the half-inhibitory concentration (IC50) was 0.136 µM. On to `C=CC(=O)N1CCN([C@H]2CCNc3c2nn(-c2ccc(Oc4ccccc4OC(F)(F)F)cc2)c3C(N)=O)CC1` [Example 100, (7S)-7-[4-(prop-2-enoyl)piperazin-1-yl]-2-{4-[2-(trifluoromethoxy)phenoxy]phenyl}-4,5,6,7-tetrahydro-2H-pyrazolo[4,3-b]pyridine-3-carboxamide], for which the half-maximal inhibitory concentration (IC50) was 0.0463 µM. As for `C=CC(=O)N1CCN([C@H]2CCNc3c2nn(-c2ccc(Oc4cccc(OC(F)(F)F)c4)cc2)c3C(N)=O)CC1` [Example 101, (7S)-7-[4-(prop-2-enoyl)piperazin-1-yl]-2-{4-[3-(trifluoromethoxy)phenoxy]phenyl}-4,5,6,7-tetrahydro-2H-pyrazolo[4,3-b]pyridine-3-carboxamide], the IC50 turned out to be 0.0641 µM. For `C=CC(=O)N1CCN([C@H]2CCNc3c2nn(-c2ccc(Oc4ccc(OC(F)(F)F)cc4)cc2)c3C(N)=O)CC1` [Example 102, (7S)-7-[4-(prop-2-enoyl)piperazin-1-yl]-2-{4-[4-(trifluoromethoxy)phenoxy]phenyl}-4,5,6,7-tetrahydro-2H-pyrazolo[4,3-b]pyridine-3-carboxamide], the concentration for half-maximal inhibition (IC50) is > 1 µM.
